IC50 data for 21 compounds are collected here from patent US20240299387A1, “HETEROCYCLIC EGFR INHIBITORS FOR USE IN THE TREATMENT OF CANCER” (Blueprint Medicines Corporation, priority 2021, published 2024).

Bounds are passed on as bounds.

One may read the IC50 as the point on the concentration scale where inhibition reaches its midpoint.

One experiment concerns the target T1, EGFR (L858R T790M C797S) (Homo sapiens, UniProt P00533, C797S/L858R/T790M).
T1 construct: purchased SignalChem E10-122VG
As to the kind of experiment: Biochemical EGFR inhibition assay (Caliper mobility shift), EGFR LRTMCS mutant. The conditions noted are these: LRTMCS (PH) IC50 (nM) @ 1 mM ATP (Num). On the procedure: Reactions proceeded until between 10% to 20% total peptides were phosphorylated at room temperature (25° C.) and were terminated with 35 mM 2,2′,2″,2′″-(ethane-1,2-diyldinitrilo)tetraacetic acid (EDTA). Product was detected using the Caliper mobility shift detection method where the phosphorylated peptide (product) and substrate were electrophoretically separated and measured. Percent activity was plotted against log concentration of compound and points to generate an apparent IC50.

Experiment [1] concerns the target T2, EGFR L858R T790M in NCI-H1975 cell line (Homo sapiens, UniProt P00533, L858R/T790M).
T2 construct: host or cells: NCI-H1975
As to the kind of experiment: NCI-H1975 pEGFR AlphaLISA assay. It is filed as cell-based. Conditions: NCI-H1975 cells (EGFR L858R T790M), p-EGFR (Tyr1068), 4-5 hours incubation; read-out: Ext pEGFR H1975 GMean IC50 (nM) Protocol: @Pharmaron AlphaLISA (Num). On the procedure:
The NCI-H1975 cells were seeded at 12.5K/well in 22 μL into 384 well opti plate (PerkinElmer, 6007299) and adhering overnight at 37C/5% CO2. On the next day, the test compounds and DMSO control were added into H1975 cell plate followed by incubation at 37C/5% CO2 for 4-5 hours. […] Then 5 μL of a donor bead mix was added to each well followed by overnight incubation at room temperature in dark. On the next day, the plate was read at a compatible plate reader to obtain pEGFR signal. Percent of pEGFR inhibition was plotted against log concentration of compounds to generate IC50 values.
On the technique in general: In Alpha technology, singlet oxygen from a donor bead excites a nearby acceptor bead.

T2 sequence (P00533 25-1210 T790M/L858R): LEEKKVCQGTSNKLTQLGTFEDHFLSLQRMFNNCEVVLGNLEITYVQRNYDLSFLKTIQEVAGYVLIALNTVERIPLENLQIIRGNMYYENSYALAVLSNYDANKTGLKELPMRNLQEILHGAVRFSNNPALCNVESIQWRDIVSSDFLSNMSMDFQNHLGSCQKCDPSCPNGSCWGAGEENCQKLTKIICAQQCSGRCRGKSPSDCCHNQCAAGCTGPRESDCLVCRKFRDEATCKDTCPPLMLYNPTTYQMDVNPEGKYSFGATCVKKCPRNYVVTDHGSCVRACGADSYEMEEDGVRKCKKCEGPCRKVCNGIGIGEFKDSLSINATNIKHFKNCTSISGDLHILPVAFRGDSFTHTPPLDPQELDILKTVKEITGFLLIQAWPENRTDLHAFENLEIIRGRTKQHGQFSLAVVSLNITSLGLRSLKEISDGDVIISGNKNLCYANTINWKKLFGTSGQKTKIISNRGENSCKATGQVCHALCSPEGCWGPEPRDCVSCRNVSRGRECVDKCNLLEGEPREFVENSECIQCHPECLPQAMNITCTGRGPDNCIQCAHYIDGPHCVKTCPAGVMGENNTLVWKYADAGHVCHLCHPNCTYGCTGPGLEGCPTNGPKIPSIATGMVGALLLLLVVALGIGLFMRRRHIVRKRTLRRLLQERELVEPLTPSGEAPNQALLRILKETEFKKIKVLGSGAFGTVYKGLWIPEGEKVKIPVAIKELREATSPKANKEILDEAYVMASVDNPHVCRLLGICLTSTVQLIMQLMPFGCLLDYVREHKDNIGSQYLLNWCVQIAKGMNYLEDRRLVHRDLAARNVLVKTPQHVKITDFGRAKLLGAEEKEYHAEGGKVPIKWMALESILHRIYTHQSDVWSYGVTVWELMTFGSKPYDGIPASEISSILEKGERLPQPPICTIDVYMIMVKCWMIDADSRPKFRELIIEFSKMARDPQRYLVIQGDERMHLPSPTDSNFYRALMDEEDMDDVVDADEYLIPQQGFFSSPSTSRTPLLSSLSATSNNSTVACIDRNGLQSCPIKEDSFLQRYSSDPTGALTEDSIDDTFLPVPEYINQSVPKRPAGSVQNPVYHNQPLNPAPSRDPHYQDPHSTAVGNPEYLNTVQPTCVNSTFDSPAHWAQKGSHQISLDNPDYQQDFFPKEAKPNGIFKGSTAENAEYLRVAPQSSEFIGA
T1 sequence (P00533 25-1210 T790M/C797S/L858R): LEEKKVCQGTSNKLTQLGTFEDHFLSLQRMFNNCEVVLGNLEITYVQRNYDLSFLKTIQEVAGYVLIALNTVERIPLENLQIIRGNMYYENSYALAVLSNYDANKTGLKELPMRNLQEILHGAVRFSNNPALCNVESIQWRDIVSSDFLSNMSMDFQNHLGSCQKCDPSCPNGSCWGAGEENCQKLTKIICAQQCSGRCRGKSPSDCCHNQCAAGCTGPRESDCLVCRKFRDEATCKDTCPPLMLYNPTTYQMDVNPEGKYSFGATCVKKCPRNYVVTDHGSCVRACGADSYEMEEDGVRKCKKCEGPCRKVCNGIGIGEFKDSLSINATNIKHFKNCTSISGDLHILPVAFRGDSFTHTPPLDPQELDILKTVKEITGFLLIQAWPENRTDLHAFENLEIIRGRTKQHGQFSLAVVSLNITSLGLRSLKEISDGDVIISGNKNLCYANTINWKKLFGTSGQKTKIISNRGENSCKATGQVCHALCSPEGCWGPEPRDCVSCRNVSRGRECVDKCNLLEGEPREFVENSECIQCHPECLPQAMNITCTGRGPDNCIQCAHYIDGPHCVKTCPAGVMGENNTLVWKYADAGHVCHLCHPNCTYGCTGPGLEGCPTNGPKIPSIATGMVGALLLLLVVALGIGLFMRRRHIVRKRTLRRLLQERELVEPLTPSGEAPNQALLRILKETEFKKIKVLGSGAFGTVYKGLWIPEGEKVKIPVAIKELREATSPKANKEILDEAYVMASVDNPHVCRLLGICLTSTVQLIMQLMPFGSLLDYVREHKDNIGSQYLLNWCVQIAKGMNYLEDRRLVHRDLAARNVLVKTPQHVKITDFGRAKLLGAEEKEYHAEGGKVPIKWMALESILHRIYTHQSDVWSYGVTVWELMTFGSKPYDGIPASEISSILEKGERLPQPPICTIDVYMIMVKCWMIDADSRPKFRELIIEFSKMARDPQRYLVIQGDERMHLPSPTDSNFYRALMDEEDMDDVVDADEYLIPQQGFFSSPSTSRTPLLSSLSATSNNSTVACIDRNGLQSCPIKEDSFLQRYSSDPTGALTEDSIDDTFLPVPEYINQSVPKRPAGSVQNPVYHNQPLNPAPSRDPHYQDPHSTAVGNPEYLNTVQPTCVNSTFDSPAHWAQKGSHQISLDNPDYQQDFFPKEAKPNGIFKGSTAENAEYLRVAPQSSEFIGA

With `CC(C)c1cnc(C(N)=O)c2cnc(Nc3ccnc(N4CC[C@@H](O)[C@@](C)(F)C4)n3)cc12` (single isomer, unassigned) [Example 61, 6-((2-((3S,4R)-3-fluoro-4-hydroxy-3-methylpiperidin-1-yl)pyrimidin-4-yl)amino)-4-isopropyl-2,7-naphthyridine-1-carboxamide or 6-((2-((3R,4S)-3-fluoro-4-hydroxy-3-methylpiperidin-1-yl)pyrimidin-4-yl)amino)-4-isopropyl-2,7-naphthyridine-1-carboxamide], the figures for the IC50 (at EGFR (L858R T790M C797S); in experiment [1]) were 20 to 30 nM and greater than 50 nM, respectively.

As for `CO[C@H]1CCN(c2nccc(Nc3cc4c(C(C)C)ccc(OCC5CN(C(C)=O)C5)c4cn3)n2)C[C@@H]1O` (single isomer, unassigned) [Example 57, 1-(3-(((3-((2-((3S,4S)-3-hydroxy-4-methoxypiperidin-1-yl)pyrimidin-4-yl)amino)-5-isopropylisoquinolin-8-yl)oxy)methyl)azetidin-1-yl)ethan-1-one or 1-(3-(((3-((2-((3R,4R)-3-hydroxy-4-methoxypiperidin-1-yl)pyrimidin-4-yl)amino)-5-isopropylisoquinolin-8-yl)oxy)methyl)azetidin-1-yl)ethan-1-one], the IC50 at EGFR (L858R T790M C797S) is 15 to 20 nM; in experiment [1], greater than 50 nM.

`CC(C)c1ccc(OC[C@@H]2CC(=O)N(C)C2)c2cnc(Nc3ccnc(N4CC[C@@H](O)[C@@](C)(F)C4)n3)cc12` (single isomer, unassigned) [Example 20]: the IC50 on EGFR (L858R T790M C797S) is less than 15 nM; in experiment [1] it was 10 to 20 nM.

`CC(C)c1cnc(C(=O)N[C@@H]2CN(C)C[C@H]2F)c2cnc(Nc3ccnc(N4CC[C@@H](O)[C@@](C)(F)C4)n3)cc12` (single isomer, unassigned) [Example 89]: the results for the IC50 (on EGFR (L858R T790M C797S); in experiment [1]) were 15 to 20 nM and greater than 50 nM, respectively.

In the case of `COCCNC(=O)c1ncc(C(C)C)c2cc(Nc3ccnc(N4CC[C@@H](O)[C@@](C)(F)C4)n3)ncc12` [Example 66, 6-((2-((3S,4R)-3-fluoro-4-hydroxy-3-methylpiperidin-1-yl)pyrimidin-4-yl)amino)-4-isopropyl-N-(2-methoxyethyl)-2,7-naphthyridine-1-carboxamide], the IC50 is 20 to 30 nM at EGFR (L858R T790M C797S) and greater than 50 nM in experiment [1].

`[2H]C([2H])([2H])O[C@H]1CCN(c2nccc(Nc3cc4c(C(C)C)ccc(OCCn5cnnc5)c4cn3)n2)C[C@H]1F` [Example 44, 8-(2-(4H-1,2,4-triazol-4-yl)ethoxy)-N-(2-((3R,4S)-3-fluoro-4-(methoxy-d3)piperidin-1-yl)pyrimidin-4-yl)-5-isopropylisoquinolin-3-amine]: the IC50 was 15 to 20 nM on EGFR (L858R T790M C797S) and greater than 50 nM in experiment [1].

Consider `Cc1nncn1CCOc1ccc(C(C)C)c2cc(Nc3ccnc(N4CC[C@](C)(O)[C@H](F)C4)n3)ncc12` [Example 30, (3R,4S)-3-fluoro-1-(4-((5-isopropyl-8-(2-(3-methyl-4H-1,2,4-triazol-4-yl)ethoxy)isoquinolin-3-yl)amino)pyrimidin-2-yl)-4-methylpiperidin-4-ol], for which the IC50 at EGFR (L858R T790M C797S) is less than 15 nM; in experiment [1], greater than 50 nM.

Regarding `CC(C)c1ccc(OCCn2cnnc2)c2cnc(Nc3ccnc(N4CC[C@](C)(O)[C@H](F)C4)n3)cc12` [Example 27, (3R,4S)-1-(4-((8-(2-(4H-1,2,4-triazol-4-yl)ethoxy)-5-isopropylisoquinolin-3-yl)amino)pyrimidin-2-yl)-3-fluoro-4-methylpiperidin-4-ol], the results for the IC50 (at EGFR (L858R T790M C797S); in experiment [1]) were less than 15 nM and greater than 50 nM, respectively.

As for `CO[C@@H]1CCN(c2nccc(Nc3cc4c(C(C)C)ccc(OCC5CN(C(C)=O)C5)c4cn3)n2)C[C@@H]1O` (single isomer, unassigned) [Example 56, 1-(3-(((3-((2-((3S,4R)-3-hydroxy-4-methoxypiperidin-1-yl)pyrimidin-4-yl)amino)-5-isopropylisoquinolin-8-yl)oxy)methyl)azetidin-1-yl)ethan-1-one or 1-(3-(((3-((2-((3R,4S)-3-hydroxy-4-methoxypiperidin-1-yl)pyrimidin-4-yl)amino)-5-isopropylisoquinolin-8-yl)oxy)methyl)azetidin-1-yl)ethan-1-one], the figures for the IC50 (at EGFR (L858R T790M C797S); in experiment [1]) were less than 15 nM and 30 to 50 nM, respectively.

With `CC(C)c1ccc(OCc2cnn(C)c2)c2cnc(Nc3ccnc(N4CC[C@@H](O)[C@@](C)(F)C4)n3)cc12` [Example 9, (3S,4R)-3-fluoro-1-(4-((5-isopropyl-8-((1-methyl-1H-pyrazol-4-yl)methoxy)isoquinolin-3-yl)amino)pyrimidin-2-yl)-3-methylpiperidin-4-ol], the IC50 is less than 15 nM on EGFR (L858R T790M C797S) and greater than 50 nM in experiment [1].

Consider `CO[C@@H]1CCN(c2nccc(Nc3cc4c(C(C)C)cnc(NCCN(C)C)c4cn3)n2)C[C@@H]1F` [Example 3, N^1-(2-(dimethylamino)ethyl)-N^6-(2-((3S,4R)-3-fluoro-4-methoxypiperidin-1-yl)pyrimidin-4-yl)-4-isopropyl-2,7-naphthyridine-1,6-diamine], for which the IC50 on EGFR (L858R T790M C797S) is 15 to 20 nM; in experiment [1], greater than 50 nM.

Regarding `CC(C)c1cnc(C(=O)NCC(C)(C)O)c2cnc(Nc3ccnc(N4CC[C@@H](O)[C@@](C)(F)C4)n3)cc12` [Example 70, 6-((2-((3S,4R)-3-fluoro-4-hydroxy-3-methylpiperidin-1-yl)pyrimidin-4-yl)amino)-N-(2-hydroxy-2-methylpropyl)-4-isopropyl-2,7-naphthyridine-1-carboxamide], the results for the IC50 (at EGFR (L858R T790M C797S); in experiment [1]) were 30 to 100 nM and greater than 50 nM, respectively.

`CC(C)c1cnc(C(=O)NC2CS(=O)(=O)C2)c2cnc(Nc3ccnc(N4CC[C@@H](O)[C@@](C)(F)C4)n3)cc12` [Example 76, N-(1,1-dioxidothietan-3-yl)-6-((2-((3S,4R)-3-fluoro-4-hydroxy-3-methylpiperidin-1-yl)pyrimidin-4-yl)amino)-4-isopropyl-2,7-naphthyridine-1-carboxamide]: the results for the IC50 (at EGFR (L858R T790M C797S); in experiment [1]) were less than 15 nM and 30 to 50 nM, respectively.

Regarding `CC(C)c1cnc(C(=O)NC2CN(CCF)C2)c2cnc(Nc3ccnc(N4CC[C@@H](O)[C@@](C)(F)C4)n3)cc12` [Example 80, 6-((2-((3S,4R)-3-fluoro-4-hydroxy-3-methylpiperidin-1-yl)pyrimidin-4-yl)amino)-N-(1-(2-fluoroethyl)azetidin-3-yl)-4-isopropyl-2,7-naphthyridine-1-carboxamide], the results for the IC50 (on EGFR (L858R T790M C797S); in experiment [1]) were less than 15 nM and 20 to 30 nM, respectively.

Regarding `[2H]C([2H])([2H])O[C@@H]1CCN(c2nccc(Nc3cc4c(C(C)C)ccc(OC[C@H]5CCC(=O)N5C)c4cn3)n2)C[C@@H]1F` [Example 47, (R)-5-(((3-((2-((3S,4R)-3-fluoro-4-(methoxy-d3)piperidin-1-yl)pyrimidin-4-yl)amino)-5-isopropylisoquinolin-8-yl)oxy)methyl)-1-methylpyrrolidin-2-one], the IC50 at EGFR (L858R T790M C797S) is 15 to 20 nM; in experiment [1], greater than 50 nM.

Regarding `CC(C)c1ccc(OCC2CCc3cncn32)c2cnc(Nc3ccnc(N4CCC(C)(O)CC4)n3)cc12` (stereo not drawn) [Example 18, 1-(4-((8-((6,7-dihydro-5Hpyrrolo[1,2-c]imidazol-5-yl)methoxy)-5-isopropylisoquinolin-3-yl)amino)pyrimidin-2-yl)-4-methylpiperidin-4-ol], the IC50 is less than 15 nM at EGFR (L858R T790M C797S) and 20 to 30 nM in experiment [1].

For the compound `CC(C)c1cnc(C(=O)NC2CN(C)C2)c2cnc(Nc3ccnc(N4CC[C@@H](O)[C@@](C)(F)C4)n3)cc12` [Example 59, 6-((2-((3S,4R)-3-fluoro-4-hydroxy-3-methylpiperidin-1-yl)pyrimidin-4-yl)amino)-4-isopropyl-N-(1-methylazetidin-3-yl)-2,7-naphthyridine-1-carboxamide], the IC50 at EGFR (L858R T790M C797S) was less than 15 nM; in experiment [1], 30 to 50 nM.

For `Cc1nccn1CCOc1ccc(C(C)C)c2cc(Nc3ccnc(N4CC[C@@](C)(O)[C@@H](F)C4)n3)ncc12` [Example 13, (3S,4R)-3-fluoro-1-(4-((5-isopropyl-8-(2-(2-methyl-1H-imidazol-1-yl)ethoxy)isoquinolin-3-yl)amino)pyrimidin-2-yl)-4-methylpiperidin-4-ol], the IC50 at EGFR (L858R T790M C797S) is less than 15 nM; in experiment [1] it was 30 to 50 nM.

`CCO[C@H]1C[C@H](NC(=O)c2ncc(C(C)C)c3cc(Nc4ccnc(N5CC[C@@H](O)[C@@](C)(F)C5)n4)ncc23)C1` [Example 84, N-((1r,3r)-3-ethoxycyclobutyl)-6-((2-((3S,4R)-3-fluoro-4-hydroxy-3-methylpiperidin-1-yl)pyrimidin-4-yl)amino)-4-isopropyl-2,7-naphthyridine-1-carboxamide]: the figures for the IC50 (on EGFR (L858R T790M C797S); in experiment [1]) were less than 15 nM and 20 to 30 nM, respectively.

For the compound `CC(C)c1ccc(OCCn2cnnc2)c2cnc(Nc3ccnc(N4CC[C@H]5COC[C@H]54)n3)cc12` (single isomer, unassigned) [Example 50], the IC50 at EGFR (L858R T790M C797S) is 20 to 30 nM; in experiment [1], greater than 50 nM.

Take `CO[C@@H]1CCN(c2nccc(Nc3cc4c(C(C)C)ccc(OCCn5cnnc5)c4cn3)n2)C[C@@H]1F` [Example 40, 8-(2-(4H-1,2,4-triazol-4-yl)ethoxy)-N-(2-((3S,4R)-3-fluoro-4-methoxypiperidin-1-yl)pyrimidin-4-yl)-5-isopropylisoquinolin-3-amine]: the IC50 on EGFR (L858R T790M C797S) is less than 15 nM; in experiment [1], greater than 50 nM.
